{"source": "patent US20070093499A1", "about": "“Use of dasatinib for the treatment of bone metastasis” (Bristol-Myers Squibb Company, priority 2005, published 2007)", "key": {"[1]": {"system": "PTH-stimulated bone resorption in fetal rat long bones", "test": "In vitro bone resorption assay (45Ca release from fetal rat long bones)", "format": "cell-based", "description": "Fetal rat long bones were prepared and cultured as described previously. (Feyen J H M, Cardinaux F, Gamse R, Bruns C, Azria M, and Trechsel U. N-terminal truncation of salmon calcitonin leads to calcitonin antagonist. Structure activity relationship of N-terminally truncated salmon calcitonin fragments in vitro and in vivo. Biochemistry and Biophysiology Research Communication 1992; 187:8-13.) Briefly, pregnant Sprague Dawley rats were injected subcutaneously with 200 μCi ^45Ca on day 18 of gestation. The following day, radii and ulnae were dissected free from muscle and connective tissue. The cartilaginous ends of the bones were removed and the calcified diaphyses were cultured in 0.5 mL BGJ medium supplemented with 1 mg/mL bovine serum albumin (BSA, fraction V) in 24-well tissue culture plates in a CO2 incubator at 37° C. overnight to reduce free exchangeable calcium. Next, medium was replaced and the bone explants were maintained in culture for 5 days in the presence or absence of the compounds to be tested. On day 2, a 100 μL aliquot was taken from the medium and the medium was replaced with fresh medium with or without treatments. […] The amount of radioactive calcium was determined using a Beckman liquid scintillation counter. Bone resorption was expressed as the percentage ^45Ca released by day 5 of total amount of ^45Ca originally incorporated in bone explants."}, "TPTX rats [2]": {"system": "TPTX rats", "test": "Inhibition of PTH-induced hypercalcemia (serum calcium) in TPTX rats, oral BMS-354825", "format": "in vivo, rat", "description": "Male Sprague-Dawley TPTX rats with basal serum calcium levels around 7-8 mg/dl were randomly assigned to the experimental groups. Alzet® mini-pumps containing a resorption stimulus (PTH: infusion rate of 0.3 μg/hr) were implanted subcutaneously. In brief, rats were anesthetized with isoflurane (5% of oxygen), the skin of the flank area was disinfected with a topical disinfectant. Following a small incision, a subcutaneous pouch was made with a sterile pair of blunt scissors, a mini-pump was inserted and the incision was closed with a wound clip. Upon drug administration, 500 μl of blood was sampled at the indicated time points by retro-orbital bleeding, the serum was collected and frozen at −80° C. Levels of serum calcium and drug were analyzed accordingly.\nThe serum levels of calcium of TPTX rats were quantitated by a photometric assay with the Roche Hitachi 917 (H9 17) automated chemistry analyzer (Indianapolis, Ind.). In this method, calcium reacts with o-cresolphthalein complexone in the presence of 8-hydroxyquinoline to form a purple chromophore. The color intensity of the purple complex is directly proportional to the calcium concentration and is measured photometrically on the analyzer. This method is capable of quantifying 0.2-18.2 mg/dL of serum calcium. For samples >18.2 mg/dL the samples must be diluted in saline and the value multiplied by the appropriate factor.\nMalignancy related hypercalcemia has been strongly linked with bone resorption mediated by stimulation of native osteoclast formation and activity. […] In this model, the thyroid and parathyroid are surgically removed to induce hypocalcemia, then subsequent infusion with PTH stimulates the osteoclast-mediated calcemic response. […]. […] […]. […] […].\n“Zoledronic acid versus placebo in the treatment of skeletal metastases in patients with lung cancer and other solid tumors: a phase III, double-blind, randomized trial—the Zoledronic Acid Lung Cancer and Other Solid Tumors Study Group.” J Clin Oncol 21(16): 3150-7). […] […]. […] […]. Due to the fact that osmotic pump works less efficiently after day 4, we intended not to include the data of calcium levels thereafter. […]."}, "in vivo": {"test": "in vivo", "conditions": "Sprague-Dawley, rat, po, 30 mg/kg", "description": "The serum levels of drug were analyzed by high performance liquid chromatography/mass spectrometry (HPLC/MS). […] After centrifugation to remove precipitated proteins, 5 μl of the supernatant was analyzed by HPLC/MS. The HPLC column was a Phenomenex Prodigy C18-ODS3 column (2 mm×50 mm, […]) maintained at 60° C. with a flow rate of 0.5 ml/min. […] The HPLC was interfaced to a Finnigan LCQ Advantage ion-trap mass spectrometer operated in the positive ion electrospray and full MS/MS mode. […] The limit of quantitation (LOQ) for the purposes of this assay was 0.004 μM. Quality control (QC) samples at two levels in the range of the standard curve were used to accept individual analytical sets. [drawing 3]\nPK data analysis was performed by noncompartmental method using Kinetica (v4.0.2, InnaPhase Corporation, Philadelphia, Pa.). The maximum plasma concentration (Cmax) and the time reaching Cmax (Tmax) were determined by visually inspecting the profiles of plasma level of drug vs. time. […] The area under the plasma drug concentration curve (AUC) was estimated by the trapezoidal rule."}, "[3]": {"system": "TRAP positive osteoclasts in mouse bone marrow cell culture", "test": "Osteoclast formation (TRAP staining) in mouse bone marrow cell culture", "format": "cell-based", "description": "Bone marrow was harvested by flushing the femur and tibia bones of CDF-1 mice with PBS followed by washing twice with PBS and resuspending in DMEM with 10% FBS (1-2×10^6 cells/m, 10 ml). Cells were then seeded in 24-well plates (2×10^6 cells/well/ml) and were cultured for 6-9 days in DMEM media supplemented with the cytokines: 10 ng/ml recombinant mouse M-CSF-1 and 100 ng/ml recombinant mouse RANK ligand to induce osteoclast development. Culture medium was replaced every two days till day 5 and there was no medium replacing between day 6 and day 9. […] On days 5, 7, and 9, cell viability and number of TRAP positive cells were determined using the Acid Phosphatase Leukocyte staining kit. The bone marrow cells were washed with PBS and stained according to the protocol recommended by the vendor. TRAP positive cells and osteoclasts were counted using an inverted microscope.\nDifferentiation to osteoclasts then occurs in the presence of osteoclast differentiation factor or RANK ligand (Buckley and Fraser Buckley, K. A. and W. D. Fraser (2002). “Receptor activator for nuclear factor kappaB ligand and osteoprotegerin: regulators of bone physiology and immune responses/potential therapeutic agents and biochemical markers.” Ann Clin Biochem 39(Pt 6): 551-6.). To establish the cell culture model of osteoclasts, bone marrow cells were freshly harvested from the tibia and femur bones of mice and were seeded in 24-wells plates containing DMEM medium supplemented with 20 ng/ml M-CSF and 100 ng/ml RANK ligand, which are the conditions commonly used in murine bone marrow culturing conditions (Murray, L. J., T. J. Abrams, et al. (2003). “SU11248 inhibits tumor growth and CSF-1R-dependent osteolysis in an experimental breast cancer bone metastasis model.” Clin Exp Metastasis 20(8): 757-66.). The formation of osteoclasts was monitored by TRAP staining for 9 days. […] Starting from day 5, TRAP positive staining cells were observed, and the multi-nucleated TRAP positive staining osteoclasts (with ≧3 nuclei) were clearly detected on day 7 and became most abundant by day 9.\n[…]. […] […]. […] […]."}, "TPTX rats [4]": {"system": "TPTX rats", "test": "Serum calcium in thyro-parathyroidectomized rats, IP dosing", "format": "in vivo, rat", "description": "Thyro-parathyroidectomy (TPTX) surgery was performed on male Sprague-Dawley rats (200 gram body weight) as described previously.4 Thyro-parathyroidectomized (TPTX) rats with serum calcium values of 5-8 mg/dl were used for the study (normal reference range is 10-12 mg/dl). On the day of the study (48 hours post-surgery), blood was collected from the tail vein under isoflurane anesthesia, and Alzet mini-pumps (delivering 1 μl/hr) containing 0.3 μg/ml of parathyroid hormone (PTH) were implanted subcutaneously. […] Blood was collected at 3, 6 & 24 hours after dosing and analyzed for serum calcium levels."}, "ovariectomized rats": {"system": "ovariectomized rats", "conditions": "Missbach et al. 1999; cited from earlier work"}, "[5]": {"system": "fetal rat long bone culture", "conditions": "Missbach et al. 1999; cited from earlier work"}, "bone resorption": {"system": "bone resorption", "conditions": "Murray et al. 2003; cited from earlier work"}, "osteoclasts": {"system": "osteoclasts", "conditions": "cell culture; Murray et al. 2003; cited from earlier work"}}, "note": "Ends that are not written are not given here.", "data": [{"molecule": "Cc1nc(Nc2ncc(C(=O)Nc3c(C)cccc3Cl)s2)cc(N2CCN(CCO)CC2)n1", "note": "[BMS-354825, N-(2-chloro-6-methylphenyl)-2-((6-(4-(2-hydroxyethyl)-1-piperazinyl)-2-methyl-4-pyrimidinyl)amino)-1,3-thiazole-5-carboxamide]", "values": [{"measurement": "IC50", "setting": "[1]; Rattus norvegicus, PTH 10^-8 M, read-out: apparent IC50, PTH-stimulated release of 45Ca (bone resorption)", "value": 2, "unit": "nM"}, {"measurement": "PTH-stimulated bone resorption", "setting": "[1]; at 5 nM", "value": "completely blocks"}, {"measurement": "inhibition of hypercalcemia compared with zometa 0.4 mg/kg/dose sc", "setting": "TPTX rats [2]; 30 mg/kg/dose po, once daily", "value": "more effective than zometa"}, {"measurement": "inhibition of hypercalcemia compared with zometa 0.4 mg/kg/dose sc", "setting": "TPTX rats [2]; 15 and 5 mg/kg/dose po, multiple treatment schedule", "value": "comparable inhibitory effect"}, {"measurement": "time to inhibition of serum calcium levels", "setting": "TPTX rats [2]; 30, 15, 5 mg/kg/dose po (QD×5), PTH infused 24 hr prior to treatment", "value": "≤ 3", "unit": "h"}, {"measurement": "inhibition of serum calcium levels", "setting": "TPTX rats [2]; 30, 15 and 5 mpk po (QD×1), upon initiation of PTH infusion", "value": "dose dependent inhibition"}, {"measurement": "inhibition of serum levels of calcium", "setting": "TPTX rats [2]; 30 mpk (QD×1) and 15 mpk (2QD×1), orally", "value": "rapidly inhibited"}, {"measurement": "serum calcium levels vs control rats", "setting": "TPTX rats [2]; day 3 post drug administration, 30 mpk QD×1 / 15 mpk 2QD×1 po", "value": "significantly below those of the control rats"}, {"measurement": "time of maximum inhibition of serum calcium levels", "setting": "TPTX rats [2]; post drug administration, 15 and 30 mg/kg/dose po", "value": 4, "unit": "h"}, {"measurement": "AUC0-24 hr", "setting": "in vivo", "value": 0.91, "unit": "µM·h"}, {"measurement": "Cmax", "setting": "in vivo", "value": 60, "unit": "nM"}, {"measurement": "AUC(0-t)", "setting": "in vivo; AUC0-24 hr", "value": 1.16, "unit": "µM·h"}, {"measurement": "formation of osteoclasts", "setting": "[3]; DMEM with M-CSF/RANK ligand, dosed on day 5 post seeding", "value": "inhibited dose dependently"}, {"measurement": "IC50", "setting": "[3]; Mus musculus, Osteoclast, 120 h, read-out: IC50, drug concentration required to inhibit 50% of osteoclast formation", "value": 4.4, "unit": "nM"}, {"measurement": "number of osteoclasts", "setting": "[3]; both culturing conditions: MDA-MB-231 condition media and DMEM with CSF/RANK ligand", "value": "significantly reduced"}, {"measurement": "number of the TRAP positive staining osteoclasts", "setting": "[3]; various concentrations dosed on day 5, cultured up to 9 days", "value": "significantly reduced"}, {"measurement": "Serum Calcium", "setting": "TPTX rats [4]; 3 mg/kg ip, 0 Hour (before dosing)", "value": "6.74 ± 0.29", "unit": "mg/dL"}, {"measurement": "Serum Calcium", "setting": "TPTX rats [4]; 3 mg/kg ip, 3 Hour", "value": "5.68 ± 0.26", "unit": "mg/dL"}, {"measurement": "Serum Calcium", "setting": "TPTX rats [4]; 3 mg/kg ip, 6 Hour", "value": "7.94 ± 1.19", "unit": "mg/dL"}, {"measurement": "Serum Calcium", "setting": "TPTX rats [4]; 3 mg/kg ip, 24 Hour", "value": "11.88 ± 0.61", "unit": "mg/dL"}, {"measurement": "significance of serum calcium effect vs vehicle", "setting": "TPTX rats [4]; 3 mg/kg ip, 3 hour time point", "value": "not significant"}, {"measurement": "Serum Calcium", "setting": "TPTX rats [4]; 10 mg/kg ip, 0 Hour (before dosing)", "value": "6.68 ± 0.25", "unit": "mg/dL"}, {"measurement": "Serum Calcium", "setting": "TPTX rats [4]; 10 mg/kg ip, 3 Hour", "value": "5.80 ± 0.19", "unit": "mg/dL"}, {"measurement": "Serum Calcium", "setting": "TPTX rats [4]; 10 mg/kg ip, 6 Hour", "value": "5.36 ± 0.12", "unit": "mg/dL"}, {"measurement": "Serum Calcium", "setting": "TPTX rats [4]; 10 mg/kg ip, 24 Hour", "value": "7.70 ± 0.78", "unit": "mg/dL"}, {"measurement": "serum calcium levels vs vehicle and calcitonin", "setting": "TPTX rats [4]; 10 mg/kg ip, after 24 hours", "value": "significantly lower than both vehicle and calcitonin"}]}, {"molecule": "COc1cccc(-c2cn(-c3ccc(CCN4CCC(O)CC4)cc3)c3ncnc(N)c23)c1", "note": "[CGP77675]", "values": [{"measurement": "bone resorption", "setting": "ovariectomized rats", "value": "inhibitory potency"}, {"measurement": "parathyroid hormone (PTH)-induced bone resorption", "setting": "[5]", "value": "inhibitory potency"}]}, {"molecule": "CCN(CC)CCNC(=O)c1c(C)[nH]c(/C=C2\\C(=O)Nc3ccc(F)cc32)c1C", "note": "[Su-11248]", "values": [{"measurement": "bone resorption in vivo", "setting": "bone resorption", "value": "inhibitory potency"}, {"measurement": "formation and function of osteoclasts", "setting": "osteoclasts", "value": "inhibitory potency"}]}, {"molecule": "O=P(O)(O)C(O)(Cn1ccnc1)P(=O)(O)O", "note": "[zometa, reference compound]", "values": [{"measurement": "onset of inhibition of serum calcium levels", "setting": "TPTX rats [2]; 0.4 mg/kg/dose sc (QD×5), PTH infused 24 hr prior to treatment", "value": "did not produce any appreciable inhibition until 24 hr"}]}, {"molecule": "Salmon Calcitonin [reference compound]", "values": [{"measurement": "Serum Calcium", "setting": "TPTX rats [4]; 5 IU ip, 0 Hour (before dosing)", "value": "6.68 ± 0.21", "unit": "mg/dL"}, {"measurement": "Serum Calcium", "setting": "TPTX rats [4]; 5 IU ip, 3 Hour", "value": "5.06 ± 0.13", "unit": "mg/dL"}, {"measurement": "Serum Calcium", "setting": "TPTX rats [4]; 5 IU ip, 6 Hour", "value": "5.14 ± 0.15", "unit": "mg/dL"}, {"measurement": "Serum Calcium", "setting": "TPTX rats [4]; 5 IU ip, 24 Hour", "value": "10.62 ± 0.64", "unit": "mg/dL"}]}, {"molecule": "calcitonin: a drug currently being used to manage hypercalcemia clinically, used as a reference compound (CGNLSTCMLGTYTQDFNKFHTFPQTAIGVGAP; ends and bridges not checked; cysteine pairing not given here; UniProt P01258 85-116, looked up) [reference compound]", "values": [{"measurement": "inhibition of serum calcium levels", "setting": "TPTX rats [2]; 5 IU/dose sc", "value": "rapid inhibition of serum calcium levels, but the inhibition was reversed rapidly"}, {"measurement": "serum calcium levels vs control rats", "setting": "TPTX rats [2]; day 3, 5 IU/dose sc", "value": "no significant difference"}]}]}
